Patent publication US11890286B2, “Methods and compositions for treating cancer” (THE UNIVERSITY OF CHICAGO, priority 2018, dated 2024)

Legend:
[1] = test system: MB436 cells; experiment: Chemotactic invasion assay, MB436 cells; type: cell-based, human; settings: increasing doses, single drug
Protocol: (§1) Boyden Chamber Invasion Assay: Each Boyden chamber membrane (Fisher Scientific, Cat. No. 353097) was coated with a thin layer of BME (200 μl of 0.25 mg/ml stock, or total of 50 μg of BME per membrane) and incubated at 37° C. for 1 hour. Cells were trypsinized and centrifuged at 500×g for 5 minutes followed by two rounds of PBS washes to remove remaining serum-containing media. Then, the cells were resuspended in serum-free media and diluted to the desired concentration for plating onto the Boyden chambers. Each Boyden chamber received 20,000-100,000 cells in 300 μl serum-free media, depending on the cell line. 10% serum was used as the chemoattractant for these assays. For the experiments testing the effect of MAPK inhibitors on invasion, the cells were resuspended in drug-containing serum-free media immediately. After 16-24 hours, the membranes were stained with Calcein AM (Fisher Scientific, Cat. No. 354217) for 1 hour at 37° C. in the dark to stain for live cells. Cells that are in the top chamber were removed from the membrane with a wet cotton swab. Cells in the bottom chamber were dissociated from the membrane by incubating in cell dissociation buffer (Trevigen, Cultrex®, Cat. No. 3455-096-05) in a shaker at 37° C. for 1 hour. Calcein AM signal was measured in Perkin Elmer Victor X3 plate reader as a read-out of invaded cells.

[2] = test system: BM1 cells; experiment: Chemotactic invasion assay, BM1 cells; type: cell-based, human; settings: increasing doses, single drug
Protocol: as §1

[3] = test system: p38; experiment: Signaling study in vitro, immunoblot of p38 phosphorylation in TNBC cell lines; type: cell-based, human and mouse; settings: anisomycin-induced human cell lines (BM1, MB436)
Protocol: (§2) Signaling studies in vitro: In order to investigate the changes in stress kinase signaling upon stress in the presence of RKIP, or small molecule inhibitors of the MAPKs, cells were plated at sub-confluence. Once they reached roughly 70% confluence, they were starved overnight (16-24 hours) in serum-free media, and then induced with either anisomycin (Sigma-Aldrich, Cat. No. A9789) at 25 ng/ml or 100 ng/ml final concentration, or by 10% serum for 30 minutes to activate MAPK pathways. In studies with small molecule inhibitors of the MAPK pathway, all inhibitors were re-suspended in DMSO and used at indicated concentrations. The cells were pre-treated with the inhibitors in serum-free media for 30 minutes after overnight starvation, immediately before induction with anisomycin or serum for 30 minutes. In this case, the inducing agent was directly added to the pre-treatment media that already had the inhibitors, or the pre-treatment media was replaced by fresh media containing the inducer and the inhibitors. […]
(§3) Protein isolation and western blots: Cultured cells were washed with cold PBS and lysed in RIPA buffer with protease inhibitors (Millipore Sigma, Cat. No. 539134) and phosphatase inhibitors (GoldBio, Cat. No. GB-450). […] Supernatant was collected and the protein concentration measured using the Bradford assay. […]

[4] = test system: orthotopic LMB tumors; experiment: Primary orthotopic LMB tumor growth in syngeneic mice; type: in vivo, mouse; settings: single inhibitor; for primary LMB tumor growth determined by final tumor weight: syngeneic model, 10 mg/kg/day or lower
Protocol: For primary tumor growth experiments, 2×10^6 BM1 cells, 5×10^5 LMB cells, or 1×10^6 […] cells were injected orthotopically near the mammary fat pad of athymic nude, C57B1/6, or C3-1-TAg-REAR mice, respectively. Tumor growth was monitored over time by caliper measurements of the width and length of tumors. Tumor volumes were calculated with the formula: For the in vivo studies involving MAPK inhibitors and the 4-drug MAPKi combination treatment, small molecule inhibitors were resuspended under sterile conditions. […] No. 91893)+50% saline. JNK inhibitor SP600125 and MEK inhibitor Trametinib were diluted in corn oil (Sigma, Cat. No. C8267). For the 4-drug combinatorial treatment, all inhibitors were dissolved in their own solvent at 4×higher concentration then the desired final concentration. Then, SB203580 and URMC-099 were mixed at a 1:1 ratio, reducing the concentration for each drug down to 2×. Similarly, SP600125 and Trametinib were mixed at a 1:1 ratio. These dual combination solutions were then filtered through 0.22 μm PES filter syringes to assure sterility. Each mouse received 50 μl of each dual combination on the same day, resulting in a total of 100 μl of drug mix (2 injections per mouse) with each drug at their desired 1×final concentration. […] All injections were intraperitoneal. For the tumor growth experiments with the MAPK inhibitors, tumors were allowed to reach the size 50-100 mm^3 size before the MAPKi treatment began. Then, the mice were treated with the respective MAPKi treatment (or the control) for up to 3 weeks. Tumor size was monitored twice a week with a caliper. For the metastasis assays, the tumor cells were treated with the 4-drug MAPKi combination at the in vitro doses for 24 hours prior to injections to allow for anti-metastatic reprogramming of the cells. Homing to metastatic tissues upon intracardiac or tail vein injections can take up to 48 hours. […] After the inoculation, the mice were treated with the inhibitors daily for up to 3 weeks until the experimental endpoints discussed above were reached.

[5] = test system: BM1 cells (BM1-NucLight Red); experiment: High-throughput chemotactic invasion assay of nuclear-labeled BM1 cells; type: cell-based, human; settings: 72 hours, single drug
Protocol: High-throughput chemotactic invasion assays: For testing anti-invasive drug combinations, IncuCyte® ClearView 96-Well Chemotaxis plates (Essen BioScience) were used. 2000 cells per well were embedded in 2 mg/ml BME and plated onto the chemotaxis plate following the manufacturer's instructions. Media containing 2% FBS was used in both top and bottom chambers to maintain cell viability over 72 hours or more. 200 ng/ml human EGF (Bio-Techne, 236-EG-01M) was used as the chemotactic agent in the bottom chamber, and the control wells only had the vehicle for the chemotactic agent.
This assay is more accurate when nuclear-labeled cells are used. Therefore, BM1-mKate2 (nuclear red) cells were generated using IncuCyte® NucLight Red Lentivirus Reagent (Essen BioScience, Cat. No. 4478) following the manufacturer's instructions. After transduction, cells with the highest nuclear red signal intensity (top 25%) were sorted by FACS.
(§4) The chemotaxis module in IncuCyte® can accurately count the number of cell in the top chamber and the bottom chamber of the ClearView plates separately. Invasive capability of the cells in the presence of various small molecule inhibitors was measured as the percentage of cells that moved to the bottom chamber over the period of 72 hours. The formula used for this calculation is (number of cells in the bottom chamber)/(number of cells in the bottom chamber+number of cells in the top chamber)×100. The total number of cells in the top and bottom chambers is used as a readout of proliferation, which was important for determining drug combinations that blocked invasion without affecting growth properties of the cells.

[6] = test system: JNK; experiment: Signaling study in vitro, immunoblot of JNK phosphorylation in TNBC cell lines; type: cell-based, human and mouse
Protocol: as §2, §3

[7] = test system: BM1 cells; experiment: 3D proliferation of BM1 cells (total cell number in the invasion assay); type: cell-based, human; settings: BM1, 10 μM and above
Protocol: as §4
3D Cultures: For 3D proliferation experiments, we used Cultrex® 3D Basement Membrane Matrix, Reduced Growth Factor (Trevigen, Cat. No. 3445-005-01, Lot No 37353J16, Lot concentration: 15.51 mg/ml, referred to as BME). For all experiments, the cells in growth media were mixed with BME at a final concentration of 2 mg/ml. For 3D proliferation assays, 100 μl of the cell/BME mixture was dispensed into each well of a 96-well plate. Upon solidification of BME, 100 μl of growth media was added on top of the solidified gel. […] The growth of the cells was monitored in IncuCyte® Zoom or S3 models for the indicated duration of time.

CN1CCN(Cc2ccc(-c3cnc4[nH]cc(-c5ccc6[nH]ccc6c5)c4c3)cc2)CC1 [URMC-099, 3-(1H-indol-5-yl)-5-[4-[(4-methyl-1-piperazinyl)methyl]phenyl]-1H-pyrrolo[2,3-b]pyridine]
invasion of MB436 cells [1]: decreased invasion | invasion of BM1 cells [2]: decreased invasion | p38 activation [3]: decrease | primary LMB tumor growth determined by final tumor weight [4]: do not affect primary LMB tumor growth | minimal dose at which the proliferation rates were unaffected while the invasive capabilities of the cells were at least partially blocked [5]: 10 to 50 nM | JNK activation ([6]; anisomycin-induced human cell lines (BM1, MB436)): decrease

O=C(O)c1ccc2c(c1)nc(Nc1cccc(Cl)c1)c1ccncc12 [CX-4945]
effect on growth at the doses that blocked invasion [7]: growth-inhibitory

C[S+]([O-])c1ccc(-c2nc(-c3ccc(F)cc3)c(-c3ccncc3)[nH]2)cc1 (stereo not shown) [SB203580, 4-(4-Fluorophenyl)-2-(4-methylsulfinylphenyl)-5-(4-pyridyl)-1H-imidazole]
primary LMB tumor growth determined by final tumor weight [4]: do not affect primary LMB tumor growth | minimal dose at which the proliferation rates were unaffected while the invasive capabilities of the cells were at least partially blocked [5]: 1000 nM | JNK activation upon p38 inhibition (crosstalk) ([6]; serum-induced, all four human and mouse TNBC cell lines): resulted in JNK activation

CC(=O)Nc1cccc(-n2c(=O)n(C3CC3)c(=O)c3c(Nc4ccc(I)cc4F)n(C)c(=O)c(C)c32)c1 [Trametinib]
primary LMB tumor growth ([4]; doses below 1 mg/kg): no significant effect | minimal dose at which the proliferation rates were unaffected while the invasive capabilities of the cells were at least partially blocked [5]: 1 to 10 nM

Oc1c2ccccc2c2c3c(cccc13)N=N2 [SP600125, 1,9-Pyrazoloanthrone]
minimal dose at which the proliferation rates were unaffected while the invasive capabilities of the cells were at least partially blocked [5]: 1000 nM
